# Measured values published in ChEMBL document CHEMBL1201862, “PubChem BioAssay data set” (2004).
# Calls of active or inactive are those of the source.
# Assays:
# [1] = molecular target: 1-phosphatidylinositol 4,5-bisphosphate phosphodiesterase beta-3 (Homo sapiens, UniProt Q01970); test: Fluorescence-based biochemical high throughput dose response assay to identify inhibitors of phospholipase C isozymes (PLC-B3).
# [2] = molecular target: 1-phosphatidylinositol 4,5-bisphosphate phosphodiesterase gamma-1 (Homo sapiens, UniProt P19174); test: Counterscreen for inhibitors of phospholipase C isozymes (PLC-B3): Fluorescence-based biochemical high throughput dose response assay to identify inhibitors of phospholipase C isozymes (PLC-gamma1).
# 1-phosphatidylinositol 4,5-bisphosphate phosphodiesterase gamma-1, sequence (P19174 whole entry): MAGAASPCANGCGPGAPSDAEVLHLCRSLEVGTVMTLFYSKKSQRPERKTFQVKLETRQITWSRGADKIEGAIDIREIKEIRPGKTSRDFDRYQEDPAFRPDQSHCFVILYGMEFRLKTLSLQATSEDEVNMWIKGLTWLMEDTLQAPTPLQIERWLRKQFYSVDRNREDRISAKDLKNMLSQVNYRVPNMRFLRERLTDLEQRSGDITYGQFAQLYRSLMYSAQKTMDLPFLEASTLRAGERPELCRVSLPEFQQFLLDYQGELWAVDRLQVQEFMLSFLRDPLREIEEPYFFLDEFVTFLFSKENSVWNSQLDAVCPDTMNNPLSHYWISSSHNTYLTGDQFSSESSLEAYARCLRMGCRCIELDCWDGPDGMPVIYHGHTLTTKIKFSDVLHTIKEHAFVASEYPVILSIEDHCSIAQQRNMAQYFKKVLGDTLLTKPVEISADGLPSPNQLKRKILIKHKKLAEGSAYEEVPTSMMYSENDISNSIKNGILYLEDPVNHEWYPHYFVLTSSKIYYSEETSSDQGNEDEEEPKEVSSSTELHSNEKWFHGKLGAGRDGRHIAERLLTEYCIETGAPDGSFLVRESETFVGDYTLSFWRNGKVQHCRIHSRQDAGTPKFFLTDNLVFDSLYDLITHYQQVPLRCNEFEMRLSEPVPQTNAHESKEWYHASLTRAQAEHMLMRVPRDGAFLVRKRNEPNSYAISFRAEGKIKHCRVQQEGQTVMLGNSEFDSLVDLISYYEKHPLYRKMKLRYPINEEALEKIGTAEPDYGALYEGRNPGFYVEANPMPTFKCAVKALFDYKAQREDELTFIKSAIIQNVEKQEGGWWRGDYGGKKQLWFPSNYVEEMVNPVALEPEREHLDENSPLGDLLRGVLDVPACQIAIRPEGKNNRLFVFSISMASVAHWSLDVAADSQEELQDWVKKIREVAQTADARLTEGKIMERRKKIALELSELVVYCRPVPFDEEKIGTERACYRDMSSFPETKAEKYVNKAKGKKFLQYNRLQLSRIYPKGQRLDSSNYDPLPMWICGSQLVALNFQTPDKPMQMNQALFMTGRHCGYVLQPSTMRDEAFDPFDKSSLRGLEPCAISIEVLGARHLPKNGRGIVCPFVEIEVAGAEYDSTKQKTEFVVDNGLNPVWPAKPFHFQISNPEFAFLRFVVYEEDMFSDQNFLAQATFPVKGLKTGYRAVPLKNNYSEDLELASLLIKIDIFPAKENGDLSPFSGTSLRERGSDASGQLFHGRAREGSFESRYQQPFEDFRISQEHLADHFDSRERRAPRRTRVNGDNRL
# [3] = THP-1 cell cytotoxicity, cytotoxicity control, set 6 (AID 602433); assay type: functional; details: Mycobacterium tuberculosis
# [4] = viability loss in Vero cells – cell-based, purified and synthesized samples, set 8, cytotoxicity control for M. tuberculosis inhibitor project (AID 602431); assay type: functional; details: Mycobacterium tuberculosis
# [5] = human cervical cancer cell viability loss – 24 h, plate reader, dry powder, cytotoxicity control, dose response (AID 686928); assay type: functional, cell-based; details: HeLa
# [6] = Late stage counterscreen for inhibitors of Trypanosoma brucei methionyl tRNA synthetase (MetRS): Luminescence-based cell-based high throughput dose response assay to identify compounds that are cytotoxic to Jurkat human T lymphocyte cells.; assay type: functional
# [7] = activation of miR-122 Renilla sensor silencing – cell-based, Huh7 psiCHECK-miR122, Renilla luciferase, cherry-picked, dose response (AID 651956); assay type: functional;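 note: huh7 hepatoma cells stably carrying a psiCHECK-2 miR-122 sensor plasmid; renilla luciferase signal reporting endogenous miR-122 activity after 48 h compound exposure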
# [8] = general mammalian cell viability loss – activator set, cherry-pick, cytotoxicity control for miR-122 modulator project, dose response (AID 720690); assay type: functional, cell-based;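 note: HEK293T human cells scored for general mammalian cytotoxicity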
# [9] = general mammalian cell viability loss – inhibitor set, cherry-pick, set 2, cytotoxicity control for miR-122 modulator project, dose response (AID 720697); assay type: functional, cell-based
# [10] = molecular target: T1, Trace amine-associated receptor 1 (Homo sapiens, UniProt Q96RJ0); test: Counterscreen for agonists of the human trace amine associated receptor 1 (hTAAR1): Fluorescence-based cell-based high throughput dose response assay to identify hTAAR1 agonist that also desensitize TAAR1 receptor response.; assay type: functional
# T1 sequence (Q96RJ0 whole entry): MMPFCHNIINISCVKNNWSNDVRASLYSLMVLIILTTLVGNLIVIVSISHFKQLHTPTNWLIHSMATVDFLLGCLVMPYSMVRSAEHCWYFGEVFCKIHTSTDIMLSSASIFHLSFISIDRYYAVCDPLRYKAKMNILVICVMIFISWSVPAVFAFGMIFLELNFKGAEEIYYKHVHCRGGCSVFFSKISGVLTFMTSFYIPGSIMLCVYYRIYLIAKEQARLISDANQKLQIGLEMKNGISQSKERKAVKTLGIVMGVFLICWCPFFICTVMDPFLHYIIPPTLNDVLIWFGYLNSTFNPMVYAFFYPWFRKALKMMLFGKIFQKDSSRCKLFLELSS
# cells [11] = assay type: functional, cell-based
# cells [12] = assay type: functional, cell-based; remark: listed apart in the source
# [13] = molecular target: T1, Trace amine-associated receptor 1; test: Fluorescence-based cell-based high throughput dose response assay to identify agonists of the human trace amine associated receptor 1 (TAAR1).; assay type: functional
# [14] = Late stage assay provider results from the probe development effort to identify selective inhibitors of heat shock protein 90 (HSP90): Absorbance-based cell proliferation assay in SKBR3 cells.; assay type: functional; details: SK-BR-3
# [15] = Late stage assay provider results from the probe development effort to identify selective inhibitors of heat shock protein 90 (HSP90): Absorbance-based cell proliferation assay in MCF7 cells.; assay type: functional
# [16] = molecular target: T2, Scavenger receptor class B member 1 (Mus musculus, UniProt Q61009); test: blockers of DiI-HDL lipid transfer via SR-BI – cell-based, ldlA[mSR-BI] CHO, DiI fluorescence, dry powder, set 10, dose response (AID 624029); assay type: functional
# T2 sequence (Q61009 whole entry): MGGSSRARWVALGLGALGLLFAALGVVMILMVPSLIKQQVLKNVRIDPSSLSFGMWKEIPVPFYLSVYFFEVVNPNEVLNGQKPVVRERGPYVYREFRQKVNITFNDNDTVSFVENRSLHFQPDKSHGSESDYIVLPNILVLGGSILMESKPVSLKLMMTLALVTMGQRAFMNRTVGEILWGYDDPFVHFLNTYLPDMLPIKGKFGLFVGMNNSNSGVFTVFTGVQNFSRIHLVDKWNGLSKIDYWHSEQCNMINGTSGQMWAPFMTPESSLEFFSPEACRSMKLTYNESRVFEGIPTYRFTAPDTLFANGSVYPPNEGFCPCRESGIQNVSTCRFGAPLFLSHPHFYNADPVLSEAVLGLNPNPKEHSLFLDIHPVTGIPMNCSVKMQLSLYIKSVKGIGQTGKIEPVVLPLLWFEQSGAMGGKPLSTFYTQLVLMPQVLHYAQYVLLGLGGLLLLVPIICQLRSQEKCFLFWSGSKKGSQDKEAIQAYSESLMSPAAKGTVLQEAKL
# [17] = molecular target: T2, Scavenger receptor class B member 1; test: mouse SR-BI DiI-HDL transfer blockers – ldlA[mSR-BI] CHO cells, fluorescence plate reader, dry powder, set 9, dose response (AID 623880); assay type: functional, cell-based
# [18] = Trypanosoma cruzi growth suppression in host cells – NIH3T3 host cells, beta-gal luminescence, confirmation (AID 2044); assay type: functional, cell-based;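 note: intracellular parasites grown in NIH/3T3 mouse fibroblasts as host cells; luminescent beta-galactosidase reporter signal from transgenic T. cruzi replicating inside host cells; inhibitors lower the luminescence signal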
# [19] = molecular target: Fructose-bisphosphate aldolase (Mycobacterium tuberculosis, UniProt P9WQA3); test: Fluorescence-based biochemical high throughput dose response assay for inhibitors of the fructose-bisphosphate aldolase (FBA) of M. tuberculosis.; assay type: functional
# Fructose-bisphosphate aldolase, sequence (P9WQA3 whole entry): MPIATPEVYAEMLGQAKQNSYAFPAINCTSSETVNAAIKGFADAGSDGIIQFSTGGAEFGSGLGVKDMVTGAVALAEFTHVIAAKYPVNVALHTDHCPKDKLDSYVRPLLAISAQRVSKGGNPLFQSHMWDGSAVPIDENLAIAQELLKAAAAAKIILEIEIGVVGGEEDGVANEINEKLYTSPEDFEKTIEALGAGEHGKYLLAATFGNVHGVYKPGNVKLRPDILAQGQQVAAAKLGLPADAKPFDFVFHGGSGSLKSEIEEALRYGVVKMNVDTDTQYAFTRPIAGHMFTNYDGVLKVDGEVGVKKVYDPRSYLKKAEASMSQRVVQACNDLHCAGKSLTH
# [20] = NIH3T3 cell viability loss – ATP luminescence, mouse fibroblasts, counter-screen, dose response (AID 2010); assay type: functional, cell-based;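 note: cells exposed to compound for about 90 hours before reading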
# [21] = molecular target: Botulinum neurotoxin type F (Clostridium botulinum, UniProt P30996); test: High-throughput multiplex microsphere dose response for inhibitors of toxin protease, specifically Botulinum neurotoxin light chain F protease, compounds from Cherry Pick 02.; assay type: functional; details: read-out: EC50_MICROM
# Botulinum neurotoxin type F, sequence (P30996 1-436 limits assumed): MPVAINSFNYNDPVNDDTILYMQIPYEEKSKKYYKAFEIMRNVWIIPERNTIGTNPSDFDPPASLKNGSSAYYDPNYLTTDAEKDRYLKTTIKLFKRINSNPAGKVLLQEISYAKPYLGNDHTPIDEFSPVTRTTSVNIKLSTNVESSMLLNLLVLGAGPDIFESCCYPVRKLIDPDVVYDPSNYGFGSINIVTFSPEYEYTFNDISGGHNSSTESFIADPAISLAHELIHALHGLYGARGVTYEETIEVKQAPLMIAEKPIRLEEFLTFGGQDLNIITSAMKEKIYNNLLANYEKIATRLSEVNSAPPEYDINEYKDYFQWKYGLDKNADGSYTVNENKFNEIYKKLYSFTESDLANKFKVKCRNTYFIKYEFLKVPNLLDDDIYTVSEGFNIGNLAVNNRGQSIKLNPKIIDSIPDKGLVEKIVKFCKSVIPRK
# [22] = HEK-293T cell viability reduction – luminescence, B-cell screen hits, cytotoxicity control for BCR NF-kB inhibitor project, dose response (AID 489021); assay type: functional, cell-based;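 note: HEK-293T cells carrying an NF-kB luciferase reporter; cells exposed to compound for about 14 hours before viability readout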
# [23] = viability of HCT116 lacking mutant beta-catenin – cell-based, human colon tumor, dose response (AID 1045); assay type: functional;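 note: HCT116 colon tumor cells with beta catenin knocked out; cells exposed to compound for 60 hours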
# [24] = viability of PTEN-deleted HCT116 cells – cell-based, HCT116 PTEN knockout, dose response (AID 1047); assay type: functional;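 note: HCT116 colon tumor cells with PTEN knocked out; cells exposed to compound for 60 hours before readout; potency for loss of cell viability measured by luminescence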
# [25] = molecular target: COUP transcription factor 2 (Homo sapiens, UniProt P24468); test: Luminescence-based cell-based high throughput dose response assay to identify inhibitors of COUP-TFII (NR2F2).; assay type: functional;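 note: HEK293 cells transiently cotransfected with COUP-TFII expression vector and reporter; luciferase reporter luminescence driven by COUP-TFII from the pX2-168 reporter plasmid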
# COUP transcription factor 2, sequence (P24468 whole entry): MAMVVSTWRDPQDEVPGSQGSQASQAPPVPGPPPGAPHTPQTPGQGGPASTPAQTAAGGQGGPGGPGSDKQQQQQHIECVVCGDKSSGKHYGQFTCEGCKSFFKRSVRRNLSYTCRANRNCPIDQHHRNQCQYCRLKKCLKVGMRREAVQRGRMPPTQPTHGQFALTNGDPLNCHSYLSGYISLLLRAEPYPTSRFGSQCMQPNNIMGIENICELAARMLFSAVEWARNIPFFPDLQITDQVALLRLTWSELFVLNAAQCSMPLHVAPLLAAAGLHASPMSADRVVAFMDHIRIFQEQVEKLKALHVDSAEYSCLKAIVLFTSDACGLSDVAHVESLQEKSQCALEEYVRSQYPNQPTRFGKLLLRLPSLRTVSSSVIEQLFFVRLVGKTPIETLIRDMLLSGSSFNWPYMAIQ
# 1-phosphatidylinositol 4,5-bisphosphate phosphodiesterase beta-3, sequence (Q01970 whole entry): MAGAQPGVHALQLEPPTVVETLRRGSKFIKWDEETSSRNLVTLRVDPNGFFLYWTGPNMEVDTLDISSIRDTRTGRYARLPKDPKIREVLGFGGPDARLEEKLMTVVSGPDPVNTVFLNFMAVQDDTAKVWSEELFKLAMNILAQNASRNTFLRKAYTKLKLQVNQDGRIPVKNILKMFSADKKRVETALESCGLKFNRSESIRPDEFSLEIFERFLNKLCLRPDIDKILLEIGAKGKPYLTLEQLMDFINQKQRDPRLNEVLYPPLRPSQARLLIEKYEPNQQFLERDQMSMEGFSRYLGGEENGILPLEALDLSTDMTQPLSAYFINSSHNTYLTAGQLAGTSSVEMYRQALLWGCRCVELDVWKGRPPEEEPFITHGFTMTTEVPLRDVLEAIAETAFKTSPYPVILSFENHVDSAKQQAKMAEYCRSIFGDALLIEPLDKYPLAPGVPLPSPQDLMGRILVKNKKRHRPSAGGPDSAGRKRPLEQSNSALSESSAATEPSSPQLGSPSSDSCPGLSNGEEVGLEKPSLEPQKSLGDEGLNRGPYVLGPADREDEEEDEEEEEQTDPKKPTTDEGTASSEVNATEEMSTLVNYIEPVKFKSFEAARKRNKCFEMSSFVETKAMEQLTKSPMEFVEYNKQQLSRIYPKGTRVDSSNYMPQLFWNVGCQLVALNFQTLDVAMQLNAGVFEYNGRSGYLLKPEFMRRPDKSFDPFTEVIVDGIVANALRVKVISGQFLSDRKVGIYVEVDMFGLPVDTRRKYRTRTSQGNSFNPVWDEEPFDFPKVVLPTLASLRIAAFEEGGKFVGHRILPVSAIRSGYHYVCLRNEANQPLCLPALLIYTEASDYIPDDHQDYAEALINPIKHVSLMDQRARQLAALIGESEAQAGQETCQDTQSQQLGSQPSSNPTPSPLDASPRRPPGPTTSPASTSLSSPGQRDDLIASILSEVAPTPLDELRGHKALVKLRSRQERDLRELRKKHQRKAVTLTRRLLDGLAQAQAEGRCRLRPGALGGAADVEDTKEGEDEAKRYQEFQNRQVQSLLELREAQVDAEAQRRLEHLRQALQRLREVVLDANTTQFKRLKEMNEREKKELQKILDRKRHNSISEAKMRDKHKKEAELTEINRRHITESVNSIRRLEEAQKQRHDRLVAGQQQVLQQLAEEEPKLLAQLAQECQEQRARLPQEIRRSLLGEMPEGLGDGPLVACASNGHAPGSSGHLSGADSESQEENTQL
structure (smiles),measurement,setting,value
CCn1c(=S)sc2c(=O)n(CC(=O)Nc3cccc(Cl)c3)c(C)nc21,IC50,[1],> 122 µM (inactive)
same,IC50,[2],> 122 µM (inactive)
O=C(CSc1nc2ccccc2c(=O)[nH]1)NC1CCCCC1,CC50,[3],> 100 µM (inconclusive)
same,CC50,[4],> 100 µM (inconclusive)
same,AC50,[5],> 160 µM (inactive)
O=C(CN1CCSC1=NCc1ccccc1)c1ccc(Cl)c(Cl)c1,IC50,[6],83.2 µM (inactive)
CCOC(=O)N1CCC(NC(=O)c2ccc3c(c2)sc2nc(-c4ccccc4)cn23)CC1,AC50,[7],1.26 µM (active)
same,AC50,[8],12.3 µM (active)
same,AC50,[9],13.6 µM (active)
Fc1ccccc1N1CCN(C(c2cccs2)c2nnnn2CCc2ccccc2)CC1 (stereo not given),IC50,[10],6.73 µM (active)
same,EC50,cells [11],> 29.9 µM (inactive)
same,IC50,cells [12],> 29.9 µM (inactive)
same,EC50,[13],4.06 µM (active)
O=C(O)c1cccc(COc2ccc3cc(Br)c(=O)oc3c2)c1,IC50,[14],> 100 µM (inactive)
same,IC50,[15],> 100 µM (inactive)
Cc1noc(C)c1S(=O)(=O)Nc1ccc2c(c1)C(=O)N([C@H](C)CO)C[C@@H](C)[C@H](CN(C)S(=O)(=O)c1ccc(Cl)cc1)O2,AC50,[16],0.123 µM (active)
same,AC50,[17],0.158 µM (active)
Nc1nc2n(n1)C(c1cccs1)CC(c1ccc(Br)cc1)N2 (stereo not given),EC50,[18],4.37 µM (active)
same,IC50,[19],4.61 µM (active)
same,EC50,[20],> 60 µM (not active)
COc1ccccc1Cc1c(-c2ccc(F)cc2)nc2cc(C)c(Br)c(C)n12,EC50,[21],> 20 µM (inactive)
CN(CC1CCCO1)S(=O)(=O)c1ccc(C(=O)Nc2nc3cc4c(cc3s2)OCO4)cc1 (stereo not given),IC50,[22],> 80 µM (inactive)
same,EC50,[23],6.11 µM (active)
same,EC50,[24],9.25 µM (active)
same,IC50,[25],2.68 µM (active)
